From PubChem BioAssay (NCI)
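Grown in 96-well plates, cells were treated for 48 hours with each compound at five concentrations. Insufficient inhibition: endpoint recorded as highest concentration tested. TGI is the concentration that stops growth completely.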

How the values were obtained:
Assay in all cases: inhibition of tumour cell growth, NCI panel, 48 h
ACHN renal = test system: ACHN renal
HL-60(TB) leukemia = test system: HL-60(TB) leukemia
HOP-62 NSCLC = test system: HOP-62 NSCLC
HOP-92 NSCLC = test system: HOP-92 NSCLC
K-562 leukemia = test system: K-562 leukemia
MCF7 breast = test system: MCF7 breast
MDA-MB-231 breast = test system: MDA-MB-231 breast
MDA-MB-435 = test system: MDA-MB-435
MOLT-4 leukemia = test system: MOLT-4 leukemia
NCI-H226 lung = test system: NCI-H226 lung
NCI-H23 lung = test system: NCI-H23 lung
OVCAR-5 ovarian = test system: OVCAR-5 ovarian
SK-MEL-28 melanoma = test system: SK-MEL-28 melanoma
SK-MEL-5 melanoma = test system: SK-MEL-5 melanoma
SNB-75 CNS = test system: SNB-75 CNS
T-47D breast = test system: T-47D breast
TK-10 renal = test system: TK-10 renal
U251 CNS = test system: U251 CNS
UACC-257 melanoma = test system: UACC-257 melanoma
UO-31 renal = test system: UO-31 renal

SMILES	TGI (ACHN renal) [µM]	TGI (HL-60(TB) leukemia) [µM]	TGI (HOP-62 NSCLC) [µM]	TGI (HOP-92 NSCLC) [µM]	TGI (K-562 leukemia) [µM]	TGI (MCF7 breast) [µM]	TGI (MDA-MB-231 breast) [µM]	TGI (MDA-MB-435) [µM]	TGI (MOLT-4 leukemia) [µM]	TGI (NCI-H226 lung) [µM]	TGI (NCI-H23 lung) [µM]	TGI (OVCAR-5 ovarian) [µM]	TGI (SK-MEL-28 melanoma) [µM]	TGI (SK-MEL-5 melanoma) [µM]	TGI (SNB-75 CNS) [µM]	TGI (T-47D breast) [µM]	TGI (TK-10 renal) [µM]	TGI (U251 CNS) [µM]	TGI (UACC-257 melanoma) [µM]	TGI (UO-31 renal) [µM]
O=C(CCCN1CCC2(CC1)NC(=O)c1ccccc1O2)c1ccc(F)cc1	> 100	> 100	> 100	> 100	> 100	> 100	> 100	> 100	> 100	> 100	> 100	> 100	> 100	> 100	> 100	> 100	> 100	> 100	> 100	> 100
Cn1cc(-c2cnc(-c3cn(C)c4ccccc34)cn2)c2ccccc21	> 94.6	8.66	> 100	> 100	> 52.5	> 27.1	> 96.6	7.38	> 100	> 86.1	37.6	> 100	> 79.2	25.3	25.7	> 100	> 100	40.2	> 100	> 65
O=C1C(c2c(O)[nH]c3ccc(S(=O)(=O)O)cc23)=Nc2ccc(Br)cc21	> 100	> 100	> 100	> 100	> 100	> 100	> 100	> 100	> 100	> 100	> 100	> 100	> 100	> 100	> 100	> 100	> 100	> 100	> 100	> 100
O=c1ssc(Cl)c1Nc1c(Cl)ssc1=O	> 54.3	35.1	42.4	41.6	15.3	> 63	41.1	37.7	7.29	79	38.8	37.3	> 61.8	32	46.5	29.8	33.3	36.8	33.4	32.4
